From US12384797B2, “Thioeno[3,2-b] pyridin-7-amine compounds for treating familial dysautonomia” (PTC THERAPEUTICS, INC., priority 2019, dated 2025)

system: Elongator complex protein 1 (ELP1, also referred to as IKBKAP); experiment: IKBKAP-HTRF assay (IKBKAP protein in lysates of FD patient-derived fibroblasts); type: cell-based, human; details: 48 hours incubation, 7-point concentration curve
Method in brief: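 Sandwich HTRF with two labelled anti-IKAP antibodies (overnight, 4 °C) measured IKBKAP in lysates of FD patient fibroblasts. Cells were exposed to compound for 48 h at 37 °C (7-point curve, 3.16-fold steps, triplicates). EC2x is the dose doubling IKBKAP versus DMSO control; MFI is sample ΔF divided by vehicle ΔF.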

| SMILES | EC2x for IKBKAP protein expression (concentration producing two times the amount of IKBKAP protein vs DMSO vehicle control) | MFI (maximum fold increase in IKBKAP protein abundance relative to the vehicle control) |
| --- | --- | --- |
| Cc1c(C[C@@H](N)C(=O)Nc2ccncc2)sc2c(NCc3ccco3)cc(Cl)nc12 [Compound 140, 3-(5-chloro-7-{[(furan-2-yl)methyl]amino}-3-methylthieno[3,2-b]pyridin-2-yl)-N-pyridin-4-yl-D-alaninamide] | ***** (≤0.005 μM is indicated by five stars (*****)) | ***** (>4.9 is indicated by five stars (*****)) |
| Cc1c(C[C@@H](N)C(=O)N(C)c2ccccc2)sc2c(NCc3ccco3)cc(Cl)nc12 [Compound 141, 3-(5-chloro-7-{[(furan-2-yl)methyl]amino}-3-methylthieno[3,2-b]pyridin-2-yl)-N-methyl-N-phenyl-D-alaninamide] | *** (between >0.02 μM and ≤0.5 μM is indicated by three stars (***)) | **** (between >3.9 and ≤4.9 is indicated by four stars (****)) |
| Cc1ccc(NC(=O)[C@H](N)Cc2sc3c(NCc4ccco4)cc(Cl)nc3c2C)cc1 [Compound 142, 3-(5-chloro-7-{[(furan-2-yl)methyl]amino}-3-methylthieno[3,2-b]pyridin-2-yl)-N-(4-methylphenyl)-D-alaninamide] | **** (between >0.005 μM and ≤0.02 μM is indicated by four stars (****)) | ***** (>4.9 is indicated by five stars (*****)) |
| Cc1c(C[C@@H](N)C(=O)Nc2cccc(Cl)c2)sc2c(NCc3ccco3)cc(Cl)nc12 [Compound 143, 3-(5-chloro-7-{[(furan-2-yl)methyl]amino}-3-methylthieno[3,2-b]pyridin-2-yl)-N-(3-chlorophenyl)-D-alaninamide] | *** (between >0.02 μM and ≤0.5 μM is indicated by three stars (***)) | ***** (>4.9 is indicated by five stars (*****)) |
| COc1cccc(NC(=O)[C@H](N)Cc2sc3c(NCc4ccco4)cc(Cl)nc3c2C)c1 [Compound 144, 3-(5-chloro-7-{[(furan-2-yl)methyl]amino}-3-methylthieno[3,2-b]pyridin-2-yl)-N-(3-methoxyphenyl)-D-alaninamide] | **** (between >0.005 μM and ≤0.02 μM is indicated by four stars (****)) | ***** (>4.9 is indicated by five stars (*****)) |
| Cc1c(C[C@@H](N)C(=O)Nc2ccnn2C)sc2c(NCc3ccco3)cc(Cl)nc12 [Compound 145, 3-(5-chloro-7-{[(furan-2-yl)methyl]amino}-3-methylthieno[3,2-b]pyridin-2-yl)-N-(1-methyl-1H-pyrazol-5-yl)-D-alaninamide] | *** (between >0.02 μM and ≤0.5 μM is indicated by three stars (***)) | ***** (>4.9 is indicated by five stars (*****)) |
| Cc1c(C(C)CO)sc2c(NCc3ccco3)cc(Cl)nc12 (stereo not drawn) [Compound 146, 2-(5-chloro-7-{[(furan-2-yl)methyl]amino}-3-methylthieno[3,2-b]pyridin-2-yl)propan-1-ol] | * (An EC2x>1 μM is indicated by one star (*)) | * (An MFI≤1.9 is indicated by one star (*)) |
| Cc1c(C(C)(O)CO)sc2c(NCc3ccco3)cc(Cl)nc12 (stereo not drawn) [Compound 147, 2-(5-chloro-7-{[(furan-2-yl)methyl]amino}-3-methylthieno[3,2-b]pyridin-2-yl)propane-1,2-diol] | *** (between >0.02 μM and ≤0.5 μM is indicated by three stars (***)) | ** (between >1.9 and ≤2.9 is indicated by two stars (**)) |
| Cc1c(C(C)CN)sc2c(NCc3ccco3)cc(Cl)nc12 (stereo not drawn) [Compound 148, 2-(1-aminopropan-2-yl)-5-chloro-N-[(furan-2-yl)methyl]-3-methylthieno[3,2-b]pyridin-7-amine] | ***** (≤0.005 μM is indicated by five stars (*****)) | **** (between >3.9 and ≤4.9 is indicated by four stars (****)) |
| FC(F)Oc1csc2c(NCc3cccs3)cc(Cl)nc12 [Compound 149, 5-chloro-3-(difluoromethoxy)-N-[(thiophen-2-yl)methyl]thieno[3,2-b]pyridin-7-amine] | *** (between >0.02 μM and ≤0.5 μM is indicated by three stars (***)) | **** (between >3.9 and ≤4.9 is indicated by four stars (****)) |
| Cc1c([C@H](C)[C@H](C)N)sc2c(NCc3ccco3)cc(Cl)nc12 [Compound 150, 2-[(2R,3S)-3-aminobutan-2-yl]-5-chloro-N-[(furan-2-yl)methyl]-3-methylthieno[3,2-b]pyridin-7-amine] | ***** (≤0.005 μM is indicated by five stars (*****)) | ***** (>4.9 is indicated by five stars (*****)) |
| Cc1c([C@@H](C)[C@H](C)N)sc2c(NCc3ccco3)cc(Cl)nc12 [Compound 151, 2-[(2S,3S)-3-aminobutan-2-yl]-5-chloro-N-[(furan-2-yl)methyl]-3-methylthieno[3,2-b]pyridin-7-amine] | *** (between >0.02 μM and ≤0.5 μM is indicated by three stars (***)) | ** (between >1.9 and ≤2.9 is indicated by two stars (**)) |
| Cc1c(CCN)sc2c(NCc3ccco3)cc(Cl)nc12 [Compound 152, 2-(2-aminoethyl)-5-chloro-N-[(furan-2-yl)methyl]-3-methylthieno[3,2-b]pyridin-7-amine] | *** (between >0.02 μM and ≤0.5 μM is indicated by three stars (***)) | ** (between >1.9 and ≤2.9 is indicated by two stars (**)) |
| C[C@H](N)C(O)c1sc2c(NCc3ccco3)cc(Cl)nc2c1Br (stereo partly drawn) [Compound 153, (2S)-2-amino-1-(3-bromo-5-chloro-7-{[(furan-2-yl)methyl]amino}thieno[3,2-b]pyridin-2-yl)propan-1-ol] | *** (between >0.02 μM and ≤0.5 μM is indicated by three stars (***)) | ** (between >1.9 and ≤2.9 is indicated by two stars (**)) |
| C[C@H](N)C(F)c1sc2c(NCc3ccco3)cc(Cl)nc2c1Br (stereo partly drawn) [Compound 154, 2-[(2S)-2-amino-1-fluoropropyl]-3-bromo-5-chloro-N-[(furan-2-yl)methyl]thieno[3,2-b]pyridin-7-amine] | ***** (≤0.005 μM is indicated by five stars (*****)) | **** (between >3.9 and ≤4.9 is indicated by four stars (****)) |
